Measured values reported in patent US20240166702A1, “COMPOSITIONS AND METHODS FOR TREATING BREAST CANCER” (Arizona Board of Regents on Behalf of The University of …, priority 2021, published 2024).

Experiments:
MDA-MB-468 cells [1] = type: cell-based, human
Method: A. Peptide sequence alignment of modified and stabilized peptides (−) indicates conserved residues, (/) indicates a deleted residue. Modified residues used for staples are (S)-2-(((9H-flouren-9-yl) methoxy) caronylamino)-2-methyl-hept-6-enoic acid (5) and (R)-2-(((9H-flouren-9-yl) methoxy) caronylamino)-2-methyl-dec-9-enoic acid (8). PTD4=Protein Transduction Domain. Ac=acetylation of 5′ end and NH2=amidation of 3′ end. B. MDA-MB-468 cells were treated with 10 μM of the indicated peptide for 3 days. Cell viability was measured using an MTT assay. Vehicle control represents 100%. C. A predicted peptide structure of SNX1.3 was generated using SWISSMODEL with negative (blue) and positive (red) residues highlighted.
B. MDA-MD-468 cells were transduced with an IPTG inducible shEGFR targeted against the 3′ UTR of EGFR. These cells were incubated with IPTG for the indicated number of days and lysates were generated to confirm knock down of EGFR. C. In tandem with B., cells were plated and incubated +/−IPTG for 2 days prior to drug treatment. […] After 5 days of IPTG and 3 days of peptide treatment viability was measured using an MTT assay.
Predicted peptide structure including negatively (blue) and positively (red) charged residues was used to guide the modifications (FIG. 2C).

[2] = target: EGFR kinase domain / SNX1 Bar domain (Homo sapiens, UniProt P00533); assay: MST binding of EGFR kinase domain with SNX1 Bar domain and peptides; settings: EGFR kinase domain 50 nM
Chain of EGFR kinase domain / SNX1 Bar domain (P00533 712-979 limits assumed): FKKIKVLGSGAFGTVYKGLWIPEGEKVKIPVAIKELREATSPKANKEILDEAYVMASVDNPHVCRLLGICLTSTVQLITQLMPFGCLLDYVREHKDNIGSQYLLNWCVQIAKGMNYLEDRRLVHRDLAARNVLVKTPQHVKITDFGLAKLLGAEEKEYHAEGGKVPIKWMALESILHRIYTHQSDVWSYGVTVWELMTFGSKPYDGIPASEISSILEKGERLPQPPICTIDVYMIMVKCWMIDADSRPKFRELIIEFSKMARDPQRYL

pAkt and dpERK = assay: EGF-dependent Akt and ERK activation in MDA-MB-468 cells; type: cell-based, human; settings: MDA-MB-468, EGF stimulated
MDA-MB-468 cells [3] = assay: Bulk RNAseq of treated MDA-MB-468 cells; type: cell-based, human; settings: MDA-MB-468, bulk RNAseq in triplicate
Method: (§1) C. WAP-TGFα tumors treated with either SNX1.3 or cPTD4 were analyzed for NK cells using an anti-NKp46 antibody. Inset is 20×.
A-C. […] A. A gene ontology enrichment bubble plot was produced, and the top 30 enriched GO terms are shown. Color indicates −1*log 10(FDR) for significance of overlap (the higher the more significant). X axis=log odds ratio for genes annotated to that GO term. […] C. RT-PCR analysis of IL1RL1.
(§2) In addition to bioinformatics identification of CTLs in these tumors, similar analysis implicated recruitment of NK cells as well (FIG. 9). As a part of the innate immune system, NK cells should only be recruited if a change has occurred to display NK-activating antigens. While there are many such antigens expressed under a variety of immune modulation conditions, some are highly associated with activation of NK cells against cancers, such as ULBP2/3 or MICA/MICB32.
A significant impact on the immune response, especially IL-1 dependent pathways was identified (FIG. 12A). IL-1-specific genes were searched and an upregulation in several IL1R genes, including IL1R2, IL1RL1, IL1RL2, IL1RAP and IL1RN (FIG. 12B) were found. […] It is hypothesized that the transient and targeted activation of the IL1/TLR pathway in the tumors may allow for the immune system to become active where previously these tumors were immune suppressive. […]

[4] = system: BT20 triple negative breast cancer cells; assay: BT20 mammosphere assay; type: cell-based, human
Method: Cells were then fractionated and verified by HSP90 cytosolic protein, Bap31 membrane protein, or HDAC nuclear protein. B. MDA-MB-468 cells were serum starved overnight then stimulated with EGF on ice for 10 minutes. […] B. MDA-MB-468 cells were serum starved overnight then incubated on ice with 10 ng/mL EGF for 10 minutes. […] C. […] After the second week, the number of secondary mammospheres were counted.

WAP-TGFα tumors [5] = assay: Histology and protein lysate analysis of treated WAP-TGFα tumors; type: in vivo, mouse
Description: Mice were bred continuously to induce transgene expression and palpated weekly for tumor formation. […] A. Changes in tumor size from entry into study until end of study are shown for each individual tumor, (*) indicate tumors that entered the study at size greater than 500 mm^3, all other tumors entered the study at ˜100 mm^3. B. a Kaplan-Meier survival curve was generated showing when mice were sacrificed by either reaching tumor burden (2000 mm^3) or the end of the study (p=0.0002). C. Upon sacrifice tumors were harvested and fixed in 10% formalin and embedded in paraffin. Slides were stained with hematoxylin and eosin and imaged at 20×. D. Protein lysates were generated from tumors upon sacrifice and probed for the indicated proteins.
A. Tumors (n=6 each treatment) from WAP-TGF mice as described in FIG. 1 were embedded and analyzed by NanoString. […] C. Tumors were dissected, lysed, and analyzed for apoptosis by probing for cleaved PARP and PDL1 expression.
At the end of the study, mice were sacrificed and tissues were collected and fixed in 10% buffered formalin or homogenized in tissue lysis buffer. Tissues were sectioned and evaluated for changes to tissue morphology in response to peptide treatment (FIG. 3C). […] Representative tumors from the PARP-cleavage positive (cSNX1.3-treated) and negative (cPTD4-treated) are shown (FIG. 3C).
Due to the increased leukocyte infiltration identified by histology of cSNX1.3-treated WAP-TGFα mice, NanoString analysis was performed using a panel that identifies alterations in immune regulators through localized analysis of transcript expression (PanCancer IO 360 Panel). […] These include several immune/inflammatory genes (such as CD2, TLR, CD28, H2-M3, Ly6C1, cytokines, and chemokines) as well as genes that could impact the metastatic potential of the microenvironment (including collagen 11A1 and MM P12). NanoString bioinformatics analysis further identified that these changes could be due to an increase in Cytotoxic T lymphocytes (CTLs) in cSNX1.3-treated samples compared to PTD4 (FIG. 8B). […] Therefore, tumor lysates were prepared and evaluated for apoptosis and a loss of the negative immune checkpoint receptor PDL1 (FIG. 8C). […] These changes could indicate an alteration from an immune-suppressive to an immune-surveilling microenvironment.

MCF10A cells = type: cell-based
WAP-TGFα tumors [6] = assay: Anti-NKp46 antibody analysis of WAP-TGFα tumors for NK cells; type: in vivo, mouse; settings: anti-NKp46 antibodies
Method: as §1, §2

Structure (SMILES): CC[C@H](C)[C@H](NC(=O)[C@@H](NC(=O)[C@H](Cc1c[nH]cn1)NC(=O)[C@H](CC(N)=O)NC(=O)[C@H](CCCCN)NC(=O)[C@H](C)NC(=O)[C@H](CCCNC(=N)N)NC(=O)[C@H](C)NC(=O)[C@H](CCC(N)=O)NC(=O)[C@H](CCCNC(=N)N)NC(=O)[C@H](C)NC(=O)[C@H](C)NC(=O)[C@H](C)NC(=O)[C@H](CCCNC(=N)N)NC(=O)[C@H](C)NC(=O)[C@H](Cc1ccc(O)cc1)NC(C)=O)C(C)C)C(=O)N[C@@H](CCCCN)C(=O)N[C@@H](Cc1ccc(O)cc1)C(=O)N[C@@H](CC(C)C)C(=O)N[C@@H](CCC(=O)O)C(=O)N[C@H](C(=O)N[C@@H](CC(C)C)C(=O)N[C@@H](CC(C)C)C(=O)N[C@@H](Cc1ccc(O)cc1)C(=O)N[C@@H](CO)C(=O)N[C@@H](CCC(N)=O)C(=O)N[C@@H](CCC(N)=O)C(=O)N[C@@H](CCC(N)=O)C(=O)N[C@@H](CC(C)C)C(=O)N[C@@H](C)C(=O)N[C@@H](CCCCN)C(=O)N[C@@H](Cc1ccc(O)cc1)C(=O)N[C@@H](Cc1c[nH]c2ccccc12)C(=O)N[C@@H](CCC(=O)O)C(=O)N[C@@H](C)C(=O)N[C@@H](Cc1ccccc1)C(=O)N[C@@H](CC(C)C)C(N)=O)[C@@H](C)O [cSNX1.3]
- IC50 (MDA-MB-468 cells [1]; 9 h): 7.5 µM
- efficacy after C- and N-terminal peptide end-capping (MDA-MB-468 cells [1]; MDA-MB-468, 10 μM peptide for 3 days, MTT assay): increased efficacy
- inhibition of cell survival, compared with Sapitinib (MDA-MB-468 cells [1]; MDA-MB-468, 3 days, MTT assay): more effective than Sapitinib
- binding of EGFR to SNX1 [2]: competitively inhibits
- immediate Akt or ERK activation (pAkt and dpERK; 15′): no impact
- pAkt and dpERK activation, late (pAkt and dpERK; after an hour (60′)): suppressed
- NK activating antigens ULBP2, ULBP3, MICA and MICB (MDA-MB-468 cells [3]): increased
- PDL1 expression (MDA-MB-468 cells [3]): did not alter
- secondary sphere formation after treatment in the first week only ([4]; BT20, cSNX1.3 in first week, cPTD4 or vehicle in second week): significant reduction of sphere formation
- mammosphere formation ([4]; BT20, first week of treatment): no mammospheres were formed
- secondary mammosphere formation, treated in the second week ([4]; BT20, re-plated, treatment on the second week): no mammosphere formation
- changes to tissue architecture in the normal mammary gland (WAP-TGFα tumors [5]; fixed tissue sections at end of study): No changes
- leukocyte infiltration of tumors (WAP-TGFα tumors [5]; identified by histology): increased
- overall PDL1 expression in tumors (WAP-TGFα tumors [5]; tumor lysates): decrease
- cleaved PARP / apoptosis in treated tumors (WAP-TGFα tumors [5]; tumor protein lysates at sacrifice): significant increase
- impact on normal immortalized cells (MCF10A cells): almost no impact
- NK cell infiltration into tumors (WAP-TGFα tumors [6]): Significant NK cell infiltration
